Assay results reported in US20140288056A1, “METHODS FOR NON-TOXIC TREATMENT FOR DRUG WITHDRAWAL” (DEMERX, INC., priority 2013, published 2014).

Assays:
Sprague-Dawley rat = test: Single dose toxicity in rats, oral gavage; assay type: in vivo
Experimental: The objective of this study was to determine the toxicity and toxicokinetic profile of noribogaine HCl following a single oral (gavage) administration in the Sprague-Dawley rat. A single dose of 100, 300 and 800 mg/kg (achieved with doses of 400 mg/kg 3 h +/−30 min apart because of the limitations of maximum dose formulation concentration). Five male rats/group were used. […] Hypoactivity, vocalization, chewing movements, changes in respiration/posture, salivation, stimuli sensitivity, tremors, twitches and penile erection occurred prior to death. […] The NOAEL was determined to be 100 mg/kg.

Sprague-Dawley rats = test: Fourteen day repeat dose toxicity in rats, oral gavage; assay type: in vivo, rat
Experimental: This study was conducted to evaluate the toxicity profile of noribogaine-HCl following oral (gavage) administration to the rat for 14 days following Table 2 below:
Male and female Sprague-Dawley rats, 10/sex/group, were administered 0, 25, 50 or 100 mg/kg noribogaine HCl daily by single oral gavage for 14 days. An additional 5 rats/sex/group in the 0 (control) and 100 mg/kg groups were retained for a 28 day recovery period during which no drug was administered. Six rats/sex/group (3 rats/sex controls) were similarly dosed and sampled on study days 1 and 14 for analysis of noribogaine-HCl concentrations in the blood.

dogs = test: Fourteen day repeat dose toxicity in dogs, oral gavage; assay type: in vivo, dog
Experimental: The objective of this study was to determine the toxicity profile of noribogaine HCl given following oral (gavage) administration to dogs for 14 days according to the following Table 3 below:
(§1) Noribogaine HCl was administered to groups of 4 male and 4 female dogs by single oral gavage daily for 14 days at doses of 0, 0.5, 1.0 and 5.0 mg/kg/day. An additional group of 4 male and 4 female dogs received either the vehicle control or 5.0 mg/kg/day for 14 days and were held for an additional 28 days after cessation of dosing to assess recovery from any potential drug-induced changes. The study was conducted under GLP guidelines and included comprehensive examinations of clinical signs, body weight, clinical pathology parameters, ophthalmologic examinations, ECG recordings and analyses of plasma for bioanalytical measurement of drug levels at appropriate intervals during the study. At the termination of the dosing phase and at the termination of the recovery phase, all dogs were subjected to a complete post-mortem examination including gross examination of major organs and histologic examination of an extensive list of tissues. Additional sections of brain were obtained from cerebrum, cerebellus, brain stem and spinal cord and examined histologically to evaluate potential effects on brain histopathology. In addition, these sections were examined with immunohistochemical stains for GFAP for evidence of gliosis and Calbindin for a more comprehensive examination of cerebellar Purkinje cells.
The only target tissue identified in this study was the lacrimal gland of dogs receiving 5 mg/kg/day. […] There was an associated mononuclear infiltration in the draining mandibular lymph nodes of affected dogs in this dose group. […] There was no clear evidence of local irritation associated with drug treatment in these high dose dogs. […] While slight atrophy was still evident in the acinar cells of the gland after 28 days off drug, no evidence of continuing and ongoing degeneration or cellular infiltration was observed. The NOAEL in this study was 1 mg/kg/day based on the lacrimal gland changes at 5 mg/kg/day.

[1] = Plasma toxicokinetics in dogs, 14 day repeat dose study; assay type: in vivo, dog; conditions: Group 4 (5.0 mg/kg), male and female dogs, Days 1 and 14
Experimental: as §1

[2] = Human pharmacokinetic study, single oral dose, fasting healthy volunteers; assay type: in vivo
Experimental: In double blind studies, fasting healthy volunteers (6 per cohort) were treated once orally with a tablet of noribogaine HCl. In escalating cohorts, the volunteers received 3 mg, 10 mg, 30 mg or 60 mg noribogaine.

## CC[C@@H]1C[C@H]2CC3c4[nH]c5ccc(O)cc5c4CCN(C2)C31.Cl [noribogaine HCl]
Sprague-Dawley rat; 100 mg/kg
  Treatment related signs: did not show any treatment related signs
Sprague-Dawley rat; 300 mg/kg, day of treatment, persisted until Day 2
  Rats with hypoactivity, vocalization, salivation, stimuli sensitivity, loss of limb function and lying on the cage floor: 3/5
Sprague-Dawley rat; 800 mg/kg (two doses of 400 mg/kg 3 h apart), single oral gavage, male rats
  Mortality: Mortality occurred in all male rats
Sprague-Dawley rat; 800 mg/kg group, after second dose of 400 mg/kg
  Time of mortality after administration of the second dose: 2 to 3 h
Sprague-Dawley rat; single oral dose, male rats
  NOAEL: 100 mg/kg
Sprague-Dawley rats; 100 mg/kg high dose, females
  Body weight change: −2.6%
Sprague-Dawley rats; 100 mg/kg high dose, males
  Body weight change: −5.5%
Sprague-Dawley rats; 100 mg/kg high dose, males and females
  Food consumption change: −4.7%
Sprague-Dawley rats; 25, 50 or 100 mg/kg daily for 14 days
  Test article-related effects on mortality, clinical signs, ophthalmoscopy, hematology, coagulation parameters, clinical chemistry, urinalysis, gross necropsy or histopathology: no test article-related effects
Sprague-Dawley rats; 14 days oral
  Differences in the brain in sections stained for GFAP or Calbindin: No treatment-related differences
Sprague-Dawley rats; 14 days oral, highest dose tested
  NOAEL: 100 mg/kg
Sprague-Dawley rats; mid- and high dose groups (50 and 100 mg/kg), considered incidental
  Liver weight: Minor increases
dogs; 5 mg/kg/day for 14 days
  Lacrimal gland changes: slight to moderate atrophy and degeneration of the acinar cells
dogs; 5 mg/kg/day, 28 days off drug
  Lacrimal gland change in recovery group: clear evidence of regeneration
dogs; 0.5, 1.0 and 5.0 mg/kg/day for 14 days, dosing or recovery phase
  Adverse effect in clinical observations, body weights, clinical pathological parameters, ophthalmologic examinations, ECG recordings, or gross lesions at necropsy: No evidence of adverse effect
dogs; 14 days oral
  Drug-induced effect in any other tissue including brain (histopathology, immunohistochemistry): No evidence of drug-induced effect
dogs; 14 days oral, based on lacrimal gland changes at 5 mg/kg/day
  NOAEL: 1 mg/kg/day
[1]
  Plasma level at 24 h post-dosing: significant levels of noribogaine were still detected
[2]; 3, 10, 30 or 60 mg single oral tablet
  Adverse effects: no clinically relevant adverse effects were observed
[2]; 3 to 60 mg single oral dose
  Dose linearity of parameters: linear
